From article PMC3740522, “Synthesis of the calcilytic ligand NPS 2143” (Beilstein Journal of Organic Chemistry, 2013)

Target: T1, calcium-sensing receptor (CaSR) (Rattus norvegicus, UniProt P48442)
T1 sequence (P48442 20-1079): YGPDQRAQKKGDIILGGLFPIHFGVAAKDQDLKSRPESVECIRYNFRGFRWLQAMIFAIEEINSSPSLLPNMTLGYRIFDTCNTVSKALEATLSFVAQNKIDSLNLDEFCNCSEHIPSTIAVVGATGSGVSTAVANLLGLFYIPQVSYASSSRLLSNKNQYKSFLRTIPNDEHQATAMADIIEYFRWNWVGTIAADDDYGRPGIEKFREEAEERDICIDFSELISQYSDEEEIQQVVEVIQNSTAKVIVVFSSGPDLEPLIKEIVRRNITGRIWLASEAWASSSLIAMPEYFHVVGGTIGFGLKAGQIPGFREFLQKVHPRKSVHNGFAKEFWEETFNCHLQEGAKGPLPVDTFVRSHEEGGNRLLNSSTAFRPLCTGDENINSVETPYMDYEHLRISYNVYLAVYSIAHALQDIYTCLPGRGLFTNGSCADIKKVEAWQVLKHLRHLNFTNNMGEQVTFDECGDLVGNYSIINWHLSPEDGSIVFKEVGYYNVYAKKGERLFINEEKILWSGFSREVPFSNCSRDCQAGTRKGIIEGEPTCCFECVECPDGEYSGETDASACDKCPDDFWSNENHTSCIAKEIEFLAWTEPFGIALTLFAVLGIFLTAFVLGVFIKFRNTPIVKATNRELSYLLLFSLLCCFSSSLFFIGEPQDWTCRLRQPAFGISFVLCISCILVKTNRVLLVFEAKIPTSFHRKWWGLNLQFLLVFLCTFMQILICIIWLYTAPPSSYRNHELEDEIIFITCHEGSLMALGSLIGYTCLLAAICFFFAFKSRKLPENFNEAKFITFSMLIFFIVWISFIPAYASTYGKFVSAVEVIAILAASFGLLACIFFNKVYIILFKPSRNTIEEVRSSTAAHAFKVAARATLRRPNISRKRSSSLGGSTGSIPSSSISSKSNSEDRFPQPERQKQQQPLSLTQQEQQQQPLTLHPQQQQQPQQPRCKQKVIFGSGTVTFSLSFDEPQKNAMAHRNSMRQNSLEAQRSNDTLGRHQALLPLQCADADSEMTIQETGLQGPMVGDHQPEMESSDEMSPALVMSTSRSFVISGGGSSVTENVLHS
Assay: inhibition of calcium-stimulated IP1 accumulation in HEK293 cells stably transfected with rat CaSR
Format: cell-based

SMILES: CC(C)(Cc1ccc2ccccc2c1)NC[C@@H](O)COc1cccc(Cl)c1C#N [(R)-3, NPS 2143]
- IC50: 640 nM
